Among the data in ChEMBL document CHEMBL1137894, “3-Thio-quinolinone maxi-K openers for the treatment of erectile dysfunction” (2004) are Relaxation and Activity values, retold here.

Each structure is given as a SMILES string.

The species entered for test [1] is Oryctolagus cuniculus. Kind of test: Percentage relaxation of phenylephrine-contracted rabbit corpus cavernosum tissue strips at concentration of 10 uM. The format is functional.
In test [2] the test system is Oocyte. Kind of test: Percentage opening of human Maxi-K channel in transfected oocyte cells at 20 uM. It counts as cell-based.
For test [3], the system named is Oocyte. Briefly: Percentage opening of human Maxi-K channel in transfected oocyte cells at 10 uM. The format is cell-based.
Test [4] relates to Oocyte. Briefly: Percentage opening of human Maxi-K channel in transfected oocyte cells at 5 uM. The format is cell-based.

`NC(=O)C1CCN(C(=O)CSc2c(O)nc3ccc(C(F)(F)F)cc3c2-c2cc(Cl)ccc2O)CC1` gave a Relaxation in test [1] of 67%. Also, in test [2], the Activity was 203%.

Turning to `CC1CCCN(CCCC(=O)CSc2c(O)nc3ccc(C(F)(F)F)cc3c2-c2cc(Cl)ccc2O)C1` (stereo not drawn), the Activity in test [2] was 271%.

With `Oc1ccc(Cl)cc1-c1c(SCC(O)CN2CCOCC2)c(O)nc2ccc(C(F)(F)F)cc12` (stereo not drawn), in test [1], the Relaxation is listed as 49%. The compound also displayed an Activity in test [2] of 292%.

As for `O=C(CCN1CCCC1)Nc1ccc(Sc2c(O)nc3ccc(C(F)(F)F)cc3c2-c2cc(Cl)ccc2O)cc1`, the Relaxation in test [1] was found to be 35%. The compound further had an Activity in test [2] of 264%.

With `O=C(CCN1CCC(O)CC1)CSc1c(O)nc2ccc(C(F)(F)F)cc2c1-c1cc(Cl)ccc1O`, the Activity in test [2] is 235%.

In test [1], `O=C(CCCN1CCCC1)Nc1ccc(Sc2c(O)nc3ccc(C(F)(F)F)cc3c2-c2cc(Cl)ccc2O)cc1` had a Relaxation of 36%. Besides, the Activity in test [2] was found to be 280%.

Take `O=C(CCN1CCOCC1)Nc1ccc(Sc2c(O)nc3ccc(C(F)(F)F)cc3c2-c2cc(Cl)ccc2O)cc1`: the Relaxation in test [1] was found to be 22%. The Activity in test [2] came to 453%.

The compound `O=C(CCN1CCN(c2ccccn2)CC1)Nc1ccc(Sc2c(O)nc3ccc(C(F)(F)F)cc3c2-c2cc(Cl)ccc2O)cc1` came in with a Relaxation in test [1] of 37%. Besides, in test [3], the Activity amounted to 169%.

As for `COc1ccc(Cl)cc1-c1c(SCC(O)CN2CCC(O)CC2)c(O)nc2ccc(C(F)(F)F)cc12` (stereo not drawn), the Activity in test [2] stood at 125%.

`CN1CCN(C(=O)CSc2c(O)nc3ccc(C(F)(F)F)cc3c2-c2cc(Cl)ccc2O)CC1`: in test [1], the Relaxation is 14%. The Activity in test [2] was 422%.

In test [1], `CCN(CC)CC(O)CSc1c(O)nc2ccc(C(F)(F)F)cc2c1-c1cc(Cl)ccc1O` (stereo not drawn) registered a Relaxation of 57%. This compound came in with an Activity in test [2] of 192%.

Consider `CN(C)CCN1CCN(CC(O)CSc2c(O)nc3ccc(C(F)(F)F)cc3c2-c2cc(Cl)ccc2O)CC1` (stereo not drawn), for which the Activity in test [2] came out at 113%.

`COc1ccc(Cl)cc1-c1c(Sc2ccc(NS(=O)(=O)N(C)C)cc2)c(O)nc2ccc(C(F)(F)F)cc12` had an Activity in test [4] of 114%.

As to `O=C(CCN1CCC(N2CCCCC2)CC1)Nc1ccc(Sc2c(O)nc3ccc(C(F)(F)F)cc3c2-c2cc(Cl)ccc2O)cc1`, the Relaxation in test [1] stood at 23%. Moreover, the Activity in test [2] was found to be 255%.

Regarding `O=C(CN1CCN(c2ccccn2)CC1)Nc1ccc(Sc2c(O)nc3ccc(C(F)(F)F)cc3c2-c2cc(Cl)ccc2O)cc1`, the Relaxation in test [1] was 17%. In test [4], the Activity was 116%.

In test [1], `O=C(CCCN1CCC(N2CCCCC2)CC1)Nc1ccc(Sc2c(O)nc3ccc(C(F)(F)F)cc3c2-c2cc(Cl)ccc2O)cc1` showed a Relaxation of 28%. Further, the Activity in test [2] was 268%.

Turning to `CN1CCC(N(C)CCCC(=O)CSc2c(O)nc3ccc(C(F)(F)F)cc3c2-c2cc(Cl)ccc2O)C1` (stereo not drawn), the Activity in test [2] came out at 226%.

In test [4], `CCCS(=O)(=O)Nc1ccc(Sc2c(O)nc3ccc(C(F)(F)F)cc3c2-c2cc(Cl)ccc2OC)cc1` yielded an Activity of 95%.

Turning to `O=C(CCN1CCCC1)CSc1c(O)nc2ccc(C(F)(F)F)cc2c1-c1cc(Cl)ccc1O`, the Relaxation in test [1] is reported as 30%. Moreover, the Activity in test [2] came to 335%.

In the case of `O=C(CSc1c(O)nc2ccc(C(F)(F)F)cc2c1-c1cc(Cl)ccc1O)N1CCN(CCO)CC1`, the Relaxation in test [1] is reported as 22%. The same compound gave an Activity in test [2] of 151%.

Regarding `OCCN1CCN(CC(O)CSc2c(O)nc3ccc(C(F)(F)F)cc3c2-c2cc(Cl)ccc2O)CC1` (stereo not drawn), the Relaxation in test [1] came out at 44%. In test [2], this compound yielded an Activity of 287%.

`CCS(=O)(=O)Nc1ccc(Sc2c(O)nc3ccc(C(F)(F)F)cc3c2-c2cc(Cl)ccc2O)cc1` displayed an Activity in test [3] of 296%.

For `CCOC(=O)CN1CCN(C(=O)CSc2c(O)nc3ccc(C(F)(F)F)cc3c2-c2cc(Cl)ccc2O)CC1`, the Relaxation in test [1] was determined as 19%. Besides, the Activity in test [2] was 281%.

The compound `CN(C)CCN(C)CCC(=O)Nc1ccc(Sc2c(O)nc3ccc(C(F)(F)F)cc3c2-c2cc(Cl)ccc2O)cc1` had a Relaxation in test [1] of 29%. The same compound registered an Activity in test [2] of 489%.

The compound `O=C(CCCN1CCC(N2CCCCC2)CC1)CSc1c(O)nc2ccc(C(F)(F)F)cc2c1-c1cc(Cl)ccc1O` returned an Activity in test [2] of 298%.

For `O=C(CCN1CCN(CCO)CC1)CSc1c(O)nc2ccc(C(F)(F)F)cc2c1-c1cc(Cl)ccc1O`, the Activity in test [2] is 241%.

In the case of `CN(C)C1CCN(C(=O)CSc2c(O)nc3ccc(C(F)(F)F)cc3c2-c2cc(Cl)ccc2O)CC1`, in test [1], the Relaxation is reported as 35%. In test [2], this compound came in with an Activity of 286%.

`CC1CCN(CCCC(=O)CSc2c(O)nc3ccc(C(F)(F)F)cc3c2-c2cc(Cl)ccc2O)CC1` had an Activity in test [2] of 213%.

As to `CN(CCCN1CCN(C)CC1)CCC(O)CSc1c(O)nc2ccc(C(F)(F)F)cc2c1-c1cc(Cl)ccc1O` (stereo not drawn), the Activity in test [2] worked out at 515%.

`O=C(CN1CCC(N2CCCCC2)CC1)Nc1ccc(Sc2c(O)nc3ccc(C(F)(F)F)cc3c2-c2cc(Cl)ccc2O)cc1` returned a Relaxation in test [1] of 45%. This compound also yielded an Activity in test [2] of 283%.

`O=C(CN1CCCC1)Nc1ccc(Sc2c(O)nc3ccc(C(F)(F)F)cc3c2-c2cc(Cl)ccc2O)cc1` came in with a Relaxation in test [1] of 28%. In addition, in test [2], the Activity came out at 291%.

In test [1], `O=C(CCCN1CCN(c2ccccn2)CC1)Nc1ccc(Sc2c(O)nc3ccc(C(F)(F)F)cc3c2-c2cc(Cl)ccc2O)cc1` yielded a Relaxation of 37%. In test [3], this compound showed an Activity of 197%.

Compound `O=S(=O)(CC(F)(F)F)Nc1ccc(Sc2c(O)nc3ccc(C(F)(F)F)cc3c2-c2cc(Cl)ccc2O)cc1` gave an Activity in test [2] of 170%.

In test [1], `CN1CCN(CCC(=O)Nc2ccc(Sc3c(O)nc4ccc(C(F)(F)F)cc4c3-c3cc(Cl)ccc3O)cc2)CC1` displayed a Relaxation of 30%. In test [2], this compound had an Activity of 474%.

Compound `CC(=O)N1CCN(CCCC(=O)CSc2c(O)nc3ccc(C(F)(F)F)cc3c2-c2cc(Cl)ccc2O)CC1` yielded an Activity in test [2] of 284%.

Take `COc1ccc(Cl)cc1-c1c(SCC(O)CN2CCN(C)CC2)c(O)nc2ccc(C(F)(F)F)cc12` (stereo not drawn): in test [2], the Activity came to 163%.

`O=C(CN1CCOCC1)Nc1ccc(Sc2c(O)nc3ccc(C(F)(F)F)cc3c2-c2cc(Cl)ccc2O)cc1` gave a Relaxation in test [1] of 34%. The same compound gave an Activity in test [3] of 296%.

As to `CCCS(=O)(=O)Nc1ccc(Sc2c(O)nc3ccc(C(F)(F)F)cc3c2-c2cc(Cl)ccc2O)cc1`, in test [4], the Activity came to 255%.

In test [1], `Oc1ccc(Cl)cc1-c1c(SCC(O)CN2CCSCC2)c(O)nc2ccc(C(F)(F)F)cc12` (stereo not drawn) came in with a Relaxation of 48%. The Activity in test [2] is 319%.

In test [2], `Oc1ccc(Cl)cc1-c1c(SCC(O)CN2CCCC2)c(O)nc2ccc(C(F)(F)F)cc12` (stereo not drawn) showed an Activity of 192%.

For the compound `COc1ccc(Cl)cc1-c1c(Sc2ccc(NS(=O)(=O)C(F)(F)F)cc2)c(O)nc2ccc(C(F)(F)F)cc12`, in test [1], the Relaxation is on record as 21%. The Activity in test [2] turned out to be 235%.

Take `O=S(=O)(Nc1ccc(Sc2c(O)nc3ccc(C(F)(F)F)cc3c2-c2cc(Cl)ccc2O)cc1)C(F)(F)F`: the Relaxation in test [1] is 32%. This compound also registered an Activity in test [2] of 277%.

`CN(C)CCCN(C)CCC(=O)CSc1c(O)nc2ccc(C(F)(F)F)cc2c1-c1cc(Cl)ccc1O`: the Activity in test [2] came out at 178%.

For `O=S(=O)(CCCN1CCOCC1)Nc1ccc(Sc2c(O)nc3ccc(C(F)(F)F)cc3c2-c2cc(Cl)ccc2O)cc1`, in test [1], the Relaxation was found to be 35%. The same compound showed an Activity in test [2] of 354%.

As to `CN(C)C1CCN(CC(=O)Nc2ccc(Sc3c(O)nc4ccc(C(F)(F)F)cc4c3-c3cc(Cl)ccc3O)cc2)CC1`, in test [1], the Relaxation worked out at 19%. Also, the Activity in test [2] was found to be 292%.

Compound `CN(C)S(=O)(=O)Nc1ccc(Sc2c(O)nc3ccc(C(F)(F)F)cc3c2-c2cc(Cl)ccc2O)cc1` returned an Activity in test [4] of 222%.

The compound `COc1ccc(Cl)cc1-c1c(SCC(O)CN2CCC(C)CC2)c(O)nc2ccc(C(F)(F)F)cc12` (stereo not drawn) had an Activity in test [2] of 115%.

In turn, `COc1ccc(Cl)cc1-c1c(SCC(O)CN2CCSCC2)c(O)nc2ccc(C(F)(F)F)cc12` (stereo not drawn) displayed an Activity in test [2] of 97%.

In the case of `CN1CCN(CCC(=O)CSc2c(O)nc3ccc(C(F)(F)F)cc3c2-c2cc(Cl)ccc2O)CC1`, the Activity in test [2] turned out to be 550%.

With `O=C(CCN1CCCCC1)CSc1c(O)nc2ccc(C(F)(F)F)cc2c1-c1cc(Cl)ccc1O`, the Activity in test [2] turned out to be 199%.

Regarding `O=C(CSc1c(O)nc2ccc(C(F)(F)F)cc2c1-c1cc(Cl)ccc1O)N1CCN(CCOCCO)CC1`, the Relaxation in test [1] worked out at 17%. The same compound gave an Activity in test [2] of 205%.

Compound `O=c1[nH]c2ccc(C(F)(F)F)cc2c(-c2cc(Cl)ccc2O)c1CCO` [BMS-223131] showed a Relaxation in test [1] of 83.7%. This compound gave an Activity in test [2] of 378%.

In test [1], `CN(C)CCN(C)CC(=O)Nc1ccc(Sc2c(O)nc3ccc(C(F)(F)F)cc3c2-c2cc(Cl)ccc2O)cc1` had a Relaxation of 16%. Moreover, the Activity in test [2] amounted to 231%.

In turn, `COc1ccc(Cl)cc1-c1c(SCC(O)CN2CCN(c3ncccn3)CC2)c(O)nc2ccc(C(F)(F)F)cc12` (stereo not drawn) registered an Activity in test [4] of 80%.

Consider `CN(C)CCCN(C)CC(O)CSc1c(O)nc2ccc(C(F)(F)F)cc2c1-c1cc(Cl)ccc1O` (stereo not drawn), for which the Activity in test [2] was found to be 214%.

With `COc1ccc(Cl)cc1-c1c(SCC(O)CN2CCN(C(C)=O)CC2)c(O)nc2ccc(C(F)(F)F)cc12` (stereo not drawn), the Activity in test [2] is 192%.

On to `CN1CCN(CC(=O)Nc2ccc(Sc3c(O)nc4ccc(C(F)(F)F)cc4c3-c3cc(Cl)ccc3O)cc2)CC1`, for which the Relaxation in test [1] came to 19%. The Activity in test [2] amounted to 246%.
